The record followed here is the supplement of paper PMC7244745.

Assay [1] has as its system Klebsiella pneumoniae ATCC 13882. Description: onset of ureolytic pH increase; higher = more delayed ureolysis (inhibition). In a few lines:
(§1)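 Resuspended overnight M9U cultures of Klebsiella pneumoniae ATCC 13882 were added, with no preincubation, to sealed 96-well plates of buffered 40 mM urea, phenol red and inhibitor from three stock dilutions (final 200 µl, OD600 0.05), in triplicate, then read at A557 and OD630 every 15 min for 24 h. Results are mean±SD of growth, the final optical density, and of ureolysis, measured by the final absorbance difference, the onset of the phenol red rise and a Gompertz-fit rate.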

Assay [2] has the same test system. The assay can be described thus: final OD630 (growth) after 24 h; higher = more bacterial growth; extreme values may be limits of the assay. The essentials:
as §1

The test system is the same in assay [3]. The assay can be described thus: final pH-related absorbance (A557-A630) after 24 h (absorbance units); higher = more ureolysis; extreme values may be limits of the assay. In a few lines:
as §1

The test system is the same in assay [4]. The assay can be described thus: rate of pH (A557-A630) increase, Gompertz fit (10^-4 s-1); higher = faster ureolysis; extreme values may be limits of the assay. The essentials:
as §1

SMILES strings stand for the structures. ± gives the uncertainty stated by the source.

In the case of `[F-].[Na+]` [Sodium flouride], the “onset of ureolytic pH increase” value is 12.22 ± 0.0567 h in assay [1] (0.1 mM), greater than 25 h in assay [1] (1 mM) and greater than 25 h in assay [1] (10 mM). Further, the “final OD630” value worked out at 0.408 ± 0.0001 in assay [2] (0.1 mM), 0.368 ± 0.0081 in assay [2] (1 mM) and 0.335 ± 0.0025 in assay [2] (10 mM). Besides, the “final pH-related absorbance” value in assay [3] (0.1 mM) was found to be 0.178 ± 0.0021; in assay [3] (1 mM) it was 0; in assay [3] (10 mM) it was 0. Moreover, the “rate of pH” value in assay [4] (0.1 mM) stood at 1.35 ± 0.025; in assay [4] (1 mM) it was 0; in assay [4] (10 mM), 0.

In the case of `O=S([O-])[O-].[Na+].[Na+]` [Sodium sulfite], the “onset of ureolytic pH increase” value in assay [1] (0.1 mM) stood at 7 ± 0.217 h; in assay [1] (1 mM) it was 7.4 ± 0.4 h; in assay [1] (10 mM) it was 9.88 ± 0.125 h. The entries for the “final OD630” value in assay [2] (0.1 mM), in assay [2] (1 mM) and in assay [2] (10 mM) were 0.477 ± 0.013, 0.504 ± 0.027 and 0.416 ± 0.004, respectively. Further, the “final pH-related absorbance” value stood at 0.461 ± 0.054 in assay [3] (0.1 mM), 0.373 ± 0.006 in assay [3] (1 mM) and 0.273 ± 0.011 in assay [3] (10 mM). Besides, the “rate of pH” value in assay [4] (0.1 mM) was 2.1 ± 0.24; in assay [4] (1 mM), 1.883 ± 0.013; in assay [4] (10 mM) it was 0.984 ± 0.011.

Consider `O=S(=O)(O)SSS(=O)(=O)O` [Sodium tetrathionate dihydrate], for which the results for the “onset of ureolytic pH increase” value in assay [1] (0.1 mM), in assay [1] (1 mM) and in assay [1] (10 mM) were 7.21 ± 0.35 h, 7.23 ± 0.367 h and 7.17 ± 0.383 h, respectively. The results for the “final OD630” value in assay [2] (0.1 mM), in assay [2] (1 mM) and in assay [2] (10 mM) were 0.532 ± 0.027, 0.541 ± 0.021 and 0.554 ± 0.021, respectively. The “final pH-related absorbance” value in assay [3] (0.1 mM) turned out to be 0.569 ± 0.076; in assay [3] (1 mM), 0.492 ± 0.1; in assay [3] (10 mM), 0.5 ± 0.12. Moreover, the “rate of pH” value in assay [4] (0.1 mM) is 3.64 ± 1.1; in assay [4] (1 mM) it was 3.32 ± 1.5; in assay [4] (10 mM), 3.97 ± 1.7.

Regarding `N#C[S-].[Na+]` [Sodium thiocyanate], the “onset of ureolytic pH increase” value was found to be 11.25 ± 0.065 h in assay [1] (0.1 mM), 11.7 ± 0.167 h in assay [1] (1 mM) and 12.8 ± 0.317 h in assay [1] (10 mM). In addition, the “final OD630” value in assay [2] (0.1 mM) was 0.431 ± 0.003; in assay [2] (1 mM), 0.445 ± 0.0004; in assay [2] (10 mM), 0.403 ± 0.003. Moreover, the “final pH-related absorbance” value in assay [3] (0.1 mM) was 0.152 ± 0.002; in assay [3] (1 mM), 0.144 ± 0.0019; in assay [3] (10 mM), 0.123 ± 0.0011. Further, the “rate of pH” value in assay [4] (0.1 mM) is 1.61 ± 0.036; in assay [4] (1 mM), 1.6 ± 0.048; in assay [4] (10 mM), 0.0522 ± 0.0032.

Consider `O=S(O)(O)=S` [Sodium thiosulfate], for which the entries for the “onset of ureolytic pH increase” value in assay [1] (0.1 mM), in assay [1] (1 mM) and in assay [1] (10 mM) were 9.5 ± 0.112 h, 9.93 ± 0.0833 h and 10.2 ± 0.13 h, respectively. For the same compound, the “final OD630” value turned out to be 0.476 ± 0.0014 in assay [2] (0.1 mM), 0.457 ± 0.0043 in assay [2] (1 mM) and 0.454 ± 0.011 in assay [2] (10 mM). For the same compound, the figures for the “final pH-related absorbance” value in assay [3] (0.1 mM), in assay [3] (1 mM) and in assay [3] (10 mM) were 0.154 ± 0.0011, 0.14 ± 0.0017 and 0.142 ± 0.011, respectively. The “rate of pH” value in assay [4] (0.1 mM) came to 2.09 ± 0.021; in assay [4] (1 mM) it was 2.11 ± 0.025; in assay [4] (10 mM) it was 2.2095 ± 0.0016.

As for `NS(=O)(=O)O` [Sulfamic acid], the figures for the “onset of ureolytic pH increase” value in assay [1] (0.1 mM), in assay [1] (1 mM) and in assay [1] (10 mM) were 9.36 ± 0.2 h, 8.91 ± 0.118 h and greater than 15 h, respectively. Besides, the “final OD630” value in assay [2] (0.1 mM) worked out at 0.506 ± 0.0081; in assay [2] (1 mM), 0.515 ± 0.014; in assay [2] (10 mM) it was 0. The “final pH-related absorbance” value in assay [3] (0.1 mM) was 0.166 ± 0.019; in assay [3] (1 mM), 0.182 ± 0.011; in assay [3] (10 mM), 0. Besides, the “rate of pH” value in assay [4] (0.1 mM) worked out at 2.17 ± 0.036; in assay [4] (1 mM) it was 1.96 ± 0.055; in assay [4] (10 mM) it was 0.

For the compound `O=C(OC[C@H]1O[C@@H](OC(=O)c2cc(O)c(O)c(OC(=O)c3cc(O)c(O)c(O)c3)c2)[C@H](OC(=O)c2cc(O)c(O)c(OC(=O)c3cc(O)c(O)c(O)c3)c2)[C@@H](OC(=O)c2cc(O)c(O)c(OC(=O)c3cc(O)c(O)c(O)c3)c2)[C@@H]1OC(=O)c1cc(O)c(O)c(OC(=O)c2cc(O)c(O)c(O)c2)c1)c1cc(O)c(O)c(OC(=O)c2cc(O)c(O)c(O)c2)c1` [Tannic acid], the “onset of ureolytic pH increase” value in assay [1] (0.1 mM) is 10.1 ± 0.517 h; in assay [1] (1 mM) it was 10.69 ± 0.085 h; in assay [1] (10 mM), greater than 25 h. Moreover, the “final OD630” value in assay [2] (0.1 mM) is 0.452 ± 0.0032; in assay [2] (1 mM), 0.433 ± 0.0003; in assay [2] (10 mM) it was 0. Further, the “final pH-related absorbance” value stood at 0.129 ± 0.0091 in assay [3] (0.1 mM), 0.125 ± 0.0013 in assay [3] (1 mM) and 0 in assay [3] (10 mM). Besides, the “rate of pH” value in assay [4] (0.1 mM) is 1.47 ± 0.091; in assay [4] (1 mM), 1.282 ± 0.0068; in assay [4] (10 mM), 0.

Turning to `NC(N)=S` [Thiourea], the results for the “onset of ureolytic pH increase” value in assay [1] (0.1 mM), in assay [1] (1 mM) and in assay [1] (10 mM) were 6.84 ± 0.3 h, 7.06 ± 0.2 h and 7.59 ± 0.217 h, respectively. Further, the “final OD630” value in assay [2] (0.1 mM) was 0.48 ± 0.0071; in assay [2] (1 mM), 0.492 ± 0.012; in assay [2] (10 mM) it was 0.483 ± 0.008. The “final pH-related absorbance” value amounted to 0.271 ± 0.024 in assay [3] (0.1 mM), 0.25 ± 0.0002 in assay [3] (1 mM) and 0.236 ± 0.014 in assay [3] (10 mM). Moreover, the “rate of pH” value was 2.27 ± 0.21 in assay [4] (0.1 mM), 2.13 ± 0.083 in assay [4] (1 mM) and 1.94 ± 0.099 in assay [4] (10 mM).

For `O=C1C=CC(=O)C=C1` [p-benzoquinone], the “onset of ureolytic pH increase” value was 11.35 ± 0.0333 h in assay [1] (0.017 mM) and greater than 25 h in assay [1] (0.167 mM). The figures for the “final OD630” value in assay [2] (0.017 mM) and in assay [2] (0.167 mM) were 0.421 ± 0.011 and 0, respectively. Besides, the entries for the “final pH-related absorbance” value in assay [3] (0.017 mM) and in assay [3] (0.167 mM) were 0.171 ± 0.0039 and 0, respectively. Besides, the “rate of pH” value stood at 1.59 ± 0.027 in assay [4] (0.017 mM) and 0 in assay [4] (0.167 mM).

With `Oc1ccc(Cl)cc1` [p-chlorophenol], the “onset of ureolytic pH increase” value is 12.21 ± 0.0417 h in assay [1] (0.1 mM), 15.6 ± 0.233 h in assay [1] (1 mM) and greater than 15 h in assay [1] (10 mM). Also, the “final OD630” value in assay [2] (0.1 mM) was 0.42 ± 0.0062; in assay [2] (1 mM), 0.401 ± 0.0036; in assay [2] (10 mM) it was 0. The “final pH-related absorbance” value in assay [3] (0.1 mM) was found to be 0.162 ± 0.0043; in assay [3] (1 mM) it was 0.09 ± 0.0059; in assay [3] (10 mM), 0. In addition, the “rate of pH” value in assay [4] (0.1 mM) worked out at 1.5 ± 0.019; in assay [4] (1 mM), 0.0559 ± 0.0036; in assay [4] (10 mM), 0.
